How the values were obtained:
Assay type in all cases: cell-based
[1] = tested on: Aspergillus niger ATCC 16404; test: Protection against fungi: A. niger in premixed soybean meal; details: 25° C. - 12% DBM; for Average (n = 3): A. niger count; for LOG10 (CFU/g): A. niger
Experimental: For the determination of fungal CFU, 20 grams of soybean meal were added to 180 mL of sterile tap water with Tween 80, which was vigorously stirred. Serial dilutions of the sample were carried out in order to perform recounting on the appropriate plates, in a Czapek-Dox agar medium.

[2] = tested on: Salmonella (S. typhimurium, S. enteritidis, S. heidelberg); test: Salmonella elimination in contaminated soybean meal: independent ferments vs. mixes (synergistic effect); details: 25° C. - 12% DBM; for Average (n = 3): Salmonella count; for LOG10 (CFU/g) / Reduction %: Salmonella
Experimental: In order to assess the effectiveness of the mix of the invention in the matrix of interest, an appropriate working protocol was prepared. Initially, 500 g of soybean meal were infected with 50 mL of Salmonella solution whose composition was: 10^6 CFUS. typhimurium/mL, 10^6 CFUS. enteritidis /mLand 10^6 CFUS. heidelberg /mL in equal amounts. […] 50 g of the wet meal obtained (≈25% moisture content on dry basis) were mixed within the dry meal (≈10% moisture content dry basis) and were stirred for 10 minutes. […] Daily determinations of Salmonella colony forming units were performed on this contaminated meal. To this end, 40.5 g of BPW to 4.5 g of the resulting meal were added and vigorously stirred, and then 100μL of this solution, were plated onto Salmonella-Shigella agar (SS Agar). When microorganisms were used in the protecting mixes, concentrations were carefully balanced, and the amount of bacteria added was always the same.
In the cases in which solutions with ferments were used for protection purposes, cell concentration was of about 10^8 CFU/mL.
Using the protocol described above, the effects caused by the individual strains were assessed and then compared with the effect obtained after mixing them together. […] In order to come closer to the actual values, whenever a ND value was obtained using the methodology described above, a new dilution factor was applied; each time by adding only 18 g of buffer (stirring thoroughly and then spinning), and 200 μL of this solution were plated for recounting. […] This new protocol was only used to determine the effect of the different mixes. In turn, the results obtained herein are shown using the following formula: […]
Thus, the percentage of Salmonella elimination in meal was calculated for different mixes, as well as for each ferment individually.

Salmonella = test: Residual effect: contamination and recontamination with Salmonella after treatment of soybean meal; details: 25° C. - 12% DBM; for Average (n = 3): Salmonella count; for LOG10 (CFU/g): Salmonella
Experimental: In order to assess the effectiveness of the mix of the invention in the matrix of interest, an appropriate working protocol was prepared. Initially, 500 g of soybean meal were infected with 50 mL of Salmonella solution whose composition was: 10^6 CFUS. typhimurium/mL, 10^6 CFUS. enteritidis /mLand 10^6 CFUS. heidelberg /mL in equal amounts. […] Daily determinations of Salmonella colony forming units were performed on this contaminated meal. To this end, 40.5 g of BPW to 4.5 g of the resulting meal were added and vigorously stirred, and then 100μL of this solution, were plated onto Salmonella-Shigella agar (SS Agar). When microorganisms were used in the protecting mixes, concentrations were carefully balanced, and the amount of bacteria added was always the same.
For this reason it was decided to study the response of meals protected with different solutions, by contaminating them at different times after protection. Given the complexity of the logistics of meal products, they were tested at two different times: initial contamination and recontamination on the first week after treatment; and, contamination on the fourth week with subsequent recontamination on the fifth week after treatment. In all cases, itl was contaminated and recontaminated with Salmonella solutions whose concentration was approximately 10^6 CFU/mL (as previously described).

[3] = 0 days, first series (0-6 days)
[4] = 0 days, second series (0-3 days)
[5] = 1 day, second series (0-3 days)
[6] = 2 days, first series (0-6 days)
[7] = 2 days, second series (0-3 days)
[8] = 3 days, first series (0-6 days)
[9] = 3 days, second series (0-3 days)
[10] = 4 days, first series (0-6 days)
[11] = 5 days, first series (0-6 days)
[12] = 6 days, first series (0-6 days)
[13] = day 8, after RECONTAMINATION (first week)
[14] = day 9, after RECONTAMINATION (first week)
[15] = day 11, after RECONTAMINATION (first week)
[16] = day 12, after RECONTAMINATION (first week)
[17] = day 13, after RECONTAMINATION (first week)
[18] = day 14, after RECONTAMINATION (first week)
[19] = day 15, after RECONTAMINATION (first week)
[20] = day 37, contamination on the fourth week after treatment
[21] = day 38, after RECONTAMINATION (fifth week)
[22] = day 39, after RECONTAMINATION (fifth week)
[23] = day 41, after RECONTAMINATION (fifth week)
[24] = day 42, after RECONTAMINATION (fifth week)
[25] = day 44, after RECONTAMINATION (fifth week)

CCC(=O)O [Propionic Acid]
Average (n = 3) ([1]; 0 days): 199.76
Average (n = 3) ([1]; 1 day): 152
Average (n = 3) ([1]; 2 days): 121.33
Average (n = 3) ([1]; 3 days): 91.67
Average (n = 3) ([1]; 4 days): 78
Average (n = 3) ([1]; 5 days): 57
Average (n = 3) ([1]; 6 days): 38
LOG10 (CFU/g) ([1]; 0 days): 3.65 LOG10 (CFU/g)
LOG10 (CFU/g) ([1]; 1 day): 3.53 LOG10 (CFU/g)
LOG10 (CFU/g) ([1]; 2 days): 3.43 LOG10 (CFU/g)
LOG10 (CFU/g) ([1]; 3 days): 3.31 LOG10 (CFU/g)
LOG10 (CFU/g) ([1]; 4 days): 3.24 LOG10 (CFU/g)
LOG10 (CFU/g) ([1]; 5 days): 3.10 LOG10 (CFU/g)
LOG10 (CFU/g) ([1]; 6 days): 2.93 LOG10 (CFU/g)
Average (n = 3) [2, 3]: 199.67
Average (n = 3) [2, 4]: 199.67
Average (n = 3) ([2]; 1 day, first series (0-6 days)): 145
Average (n = 3) [2, 5]: 145
Average (n = 3) [2, 6]: 110
Average (n = 3) [2, 7]: 110
Average (n = 3) [2, 8]: 90
Average (n = 3) [2, 9]: 90
Average (n = 3) [2, 10]: 60.67
Average (n = 3) [2, 11]: 57
Average (n = 3) [2, 12]: 38.33
LOG10 (CFU/g) [2, 3]: 3.65 LOG10 (CFU/g)
Reduction % [2, 3]: 0.00%
LOG10 (CFU/g) [2, 4]: 3.65 LOG10 (CFU/g)
Reduction % [2, 4]: 0.00%
LOG10 (CFU/g) ([2]; 1 day, first series (0-6 days)): 3.51 LOG10 (CFU/g)
Reduction % ([2]; 1 day, first series (0-6 days)): 3.81%
LOG10 (CFU/g) [2, 5]: 3.51 LOG10 (CFU/g)
Reduction % [2, 5]: 3.81%
LOG10 (CFU/g) [2, 6]: 3.39 LOG10 (CFU/g)
Reduction % [2, 6]: 7.10%
LOG10 (CFU/g) [2, 7]: 3.39 LOG10 (CFU/g)
Reduction % [2, 7]: 7.10%
LOG10 (CFU/g) [2, 8]: 3.30 LOG10 (CFU/g)
Reduction % [2, 8]: 9.49%
LOG10 (CFU/g) [2, 9]: 3.30 LOG10 (CFU/g)
Reduction % [2, 9]: 9.49%
LOG10 (CFU/g) [2, 10]: 3.13 LOG10 (CFU/g)
Reduction % [2, 10]: 14.22%
LOG10 (CFU/g) [2, 11]: 3.10 LOG10 (CFU/g)
Reduction % [2, 11]: 14.93%
LOG10 (CFU/g) [2, 12]: 2.93 LOG10 (CFU/g)
Reduction % [2, 12]: 19.76%
Average (n = 3) (Salmonella; day 2, initial contamination): 130
Average (n = 3) (Salmonella; day 3, initial contamination): 100.3
Average (n = 3) (Salmonella; day 4, initial contamination): 90.5
Average (n = 3) (Salmonella; day 5, initial contamination): 77
Average (n = 3) (Salmonella; day 6, initial contamination): 58
Average (n = 3) (Salmonella; day 7, initial contamination): 32
Average (n = 3) (Salmonella; [13]): 215
Average (n = 3) (Salmonella; [14]): 189.33
Average (n = 3) (Salmonella; day 10, after RECONTAMINATION (first week)): 144.33
Average (n = 3) (Salmonella; [15]): 109
Average (n = 3) (Salmonella; [16]): 96.67
Average (n = 3) (Salmonella; [17]): 70.67
Average (n = 3) (Salmonella; [18]): 48.67
Average (n = 3) (Salmonella; [19]): 40
Average (n = 3) (Salmonella; day 32, contamination on the fourth week after treatment): 130
Average (n = 3) (Salmonella; day 33, contamination on the fourth week after treatment): 120.3
Average (n = 3) (Salmonella; day 34, contamination on the fourth week after treatment): 90.5
Average (n = 3) (Salmonella; day 35, contamination on the fourth week after treatment): 77
Average (n = 3) (Salmonella; day 36, contamination on the fourth week after treatment): 58
Average (n = 3) (Salmonella; [20]): 39
Average (n = 3) (Salmonella; [21]): 247
Average (n = 3) (Salmonella; [22]): 189
Average (n = 3) (Salmonella; day 40, after RECONTAMINATION (fifth week)): 174.34
Average (n = 3) (Salmonella; [23]): 156.34
Average (n = 3) (Salmonella; [24]): 136.34
Average (n = 3) (Salmonella; day 43, after RECONTAMINATION (fifth week)): 111.67
Average (n = 3) (Salmonella; [25]): 88.34
Average (n = 3) (Salmonella; day 45, after RECONTAMINATION (fifth week)): 77
LOG10 (CFU/g) (Salmonella; [13]): 3.68 LOG10 (CFU/g)
LOG10 (CFU/g) (Salmonella; [14]): 3.62 LOG10 (CFU/g)
LOG10 (CFU/g) (Salmonella; [15]): 3.38 LOG10 (CFU/g)
LOG10 (CFU/g) (Salmonella; [16]): 3.33 LOG10 (CFU/g)
LOG10 (CFU/g) (Salmonella; [17]): 3.20 LOG10 (CFU/g)
LOG10 (CFU/g) (Salmonella; [18]): 3.03 LOG10 (CFU/g)
LOG10 (CFU/g) (Salmonella; [19]): 2.95 LOG10 (CFU/g)
LOG10 (CFU/g) (Salmonella; [20]): 2.94 LOG10 (CFU/g)
LOG10 (CFU/g) (Salmonella; [21]): 3.74 LOG10 (CFU/g)
LOG10 (CFU/g) (Salmonella; [22]): 3.62 LOG10 (CFU/g)
LOG10 (CFU/g) (Salmonella; [23]): 3.54 LOG10 (CFU/g)
LOG10 (CFU/g) (Salmonella; [24]): 3.48 LOG10 (CFU/g)
LOG10 (CFU/g) (Salmonella; [25]): 3.29 LOG10 (CFU/g)

From patent US20170238571A1, “A SYNERGISTIC COMPOSITION COMPRISING A MIXTURE OF BACTERIA OF THE GENERA LACTOBACILLUS AND PROPIONOBACTERIUM PARTICULARLY USEFUL TO REDUCE OR ELIMINATE PATHOGEN CONTAMINATION IN SOYBEN MEAL AND ITS DERIVATIVES; METHODS AND USES THEREOF” (Molinos Río de la Plata S.A., priority 2014, published 2017)
